Experimental data taken from PubChem BioAssay (NCI).
Where “and” joins values, the source holds several entries; their conditions need not be identical. Equal values may be shown once.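 All cell lines were grown in 96-well plates and treated with compound for 48 hours. GI50 marks 50% less growth. TGI is the concentration that stops growth completely.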

What was measured:
Test in all cases: DTP human tumour cell line panel, 48 h
A549 NSCLC = tested on: A549 NSCLC
IGROV1 ovarian = tested on: IGROV1 ovarian
MALME-3M melanoma = tested on: MALME-3M melanoma
NCI-H23 lung = tested on: NCI-H23 lung
SK-OV-3 ovarian = tested on: SK-OV-3 ovarian
UACC-62 melanoma = tested on: UACC-62 melanoma
A498 renal = tested on: A498 renal
DU-145 prostate = tested on: DU-145 prostate
RXF 393 renal = tested on: RXF 393 renal
SK-MEL-5 melanoma = tested on: SK-MEL-5 melanoma

| SMILES | TGI (A549 NSCLC) | TGI (IGROV1 ovarian) [µM] | TGI (MALME-3M melanoma) [µM] | TGI (NCI-H23 lung) | TGI (SK-OV-3 ovarian) [µM] | TGI (UACC-62 melanoma) | GI50 (A498 renal) [µM] | TGI (A498 renal) [µM] | GI50 (A549 NSCLC) | GI50 (DU-145 prostate) [µM] | TGI (DU-145 prostate) [µM] | GI50 (IGROV1 ovarian) [µM] | GI50 (NCI-H23 lung) [µM] | GI50 (RXF 393 renal) [µM] | TGI (RXF 393 renal) [µM] | GI50 (SK-MEL-5 melanoma) [µM] | TGI (SK-MEL-5 melanoma) [µM] | GI50 (SK-OV-3 ovarian) [µM] | GI50 (UACC-62 melanoma) [µM] | GI50 (MALME-3M melanoma) |
| --- | --- | --- | --- | --- | --- | --- | --- | --- | --- | --- | --- | --- | --- | --- | --- | --- | --- | --- | --- | --- |
| CCOC(=O)C1=C(Nc2ccc(Cl)cc2Cl)OCC1=O | > 100 µM | > 100 | > 100 | > 100 µM | > 100 | > 100 µM | – | – | – | – | – | – | – | – | – | – | – | – | – | – |
| Cn1c(-c2c(N)n(Nc3cccc(Cl)c3)c3nc(C#N)c(C#N)nc23)nc2ccccc21 | 35.4 µM | 12.6 | – | 13.2 µM | 43 | 14.9 µM | 6.56 | 16.6 | 10.9 µM | 6.46 | 15.4 | 1.27 | 2.88 | 0.0138 | 3.54 | 7.41 | 16.6 | 13.4 | 4.59 | – |
| CC1=CC(=O)CC2(C)CC[C@@H]3C[C@]12OC3(C)C (some centres not stated) | > 100 µM | > 100 | > 100 | > 100 µM | > 100 | > 100 µM | – | > 100 | – | – | – | – | – | – | > 100 | – | > 100 | – | – | – |
| O=C(O)c1ccc(NCn2nc(-c3ccccc3O)oc2=S)cc1 | > 100 µM | > 100 | – | > 100 µM | – | 97.7 µM | – | – | 42.3 µM | – | – | > 100 | 50.7 | 67.9 | > 100 | > 100 | > 100 | – | 34.1 | – |
| CCC1CC2C(=O)N(c3ccccc3)C(=O)C2c2[nH]c3ccccc3c21 (configuration not stated) | > 100 µM | 30.6 | 38.7 | > 100 µM | 29.3 | > 100 µM | – | 67.7 | – | – | – | – | – | – | 59.6 | – | > 100 | – | – | – |
| COc1ccc(S(=O)(=O)N2CCN(C(=O)c3ccc(-c4ccccc4)cc3)CC2C(=O)NO)cc1 (configuration not stated) | 12.5 µM and 82.2 µM | – | – | 12.5 µM and > 100 µM | > 100 | 12.5 µM and > 100 µM | – | – | 8.47 µM and 30.7 µM | – | – | – | – | – | – | – | – | > 100 | – | 2.25 µM and 17.3 µM |
| C=C1C(=O)OC2C/C(C)=C/CC/C(C)=C/CCC3(COC(C)=O)OC3CC12 (configuration not stated) | 32.2 µM | 31.9 | 25.7 | 26 µM | 26.7 | 27.4 µM | – | 27 | – | – | – | – | – | – | 18 | – | 28.3 | – | – | – |
| O=c1/c(=C/c2ccccc2[N+](=O)[O-])sc2nc3ccccc3n12 | > 46.4 µM | > 46.4 | > 46.4 | > 46.4 µM | > 31.6 | > 100 µM | – | > 41.6 | – | – | – | – | – | – | 41.9 | – | > 46.4 | – | – | – |
| O=C(/C=C/c1ccccc1)C(Br)C(Br)c1ccccc1 (configuration not stated) | 9.3 µM | – | – | – | 13.3 | 3.29 µM | 1.9 | 5.68 | 2.79 µM | 1.64 | 3.24 | – | – | 1.52 | 3 | – | – | 3.66 | 1.64 | – |
| N/N=C1\C(=O)N(C2CCCCCC2)C(=O)C1C(=O)NC1CCCCCC1 (configuration not stated) | > 100 µM | > 100 | 45.3 | 52.1 µM | – | 41.6 µM | – | > 100 | – | – | – | – | – | – | 69.8 | – | 43.6 | – | – | – |
| COC12CCC(=O)C=C1c1ccccc1N2C(C)=O (configuration not stated) | > 100 µM | > 100 | – | > 100 µM | > 100 | > 100 µM | – | > 100 | – | – | – | – | – | – | > 100 | – | – | – | – | – |
| Cc1nn[n-]n1.N.N.N.N.N.[Cl-].[Co+3] | > 100 µM | > 100 | > 100 | > 100 µM | > 100 | > 100 µM | – | – | > 100 µM | – | – | > 100 | > 100 | > 100 | > 100 | > 100 | > 100 | > 100 | > 100 | > 100 µM |
| CCOC(=O)C(Cc1c[nH]c2c(N(CCO)CCO)cccc12)(NC(C)=O)C(=O)OCC | > 1000 µM | > 1000 | > 1000 | > 1000 µM | > 1000 | > 1000 µM | – | – | > 1000 µM | 499 | > 1000 | 643 | > 1000 | > 1000 | > 1000 | 323 | > 1000 | > 1000 | 263 | 202 µM |
| Cc1ccccc1NC(=O)c1cc(-c2ccc([N+](=O)[O-])cc2)nc(=S)[nH]1 | > 100 µM | > 100 | > 100 | > 100 µM | > 100 | > 100 µM | – | – | – | – | – | – | – | – | > 100 | – | > 100 | – | – | – |
| N#Cc1ccccc1C(Cl)(Cl)c1cnccn1 | > 100 µM | > 100 | – | > 100 µM | > 100 | > 100 µM | – | > 100 | – | – | – | – | – | – | > 100 | – | 87.3 | – | – | – |
| O=C1CC2C(=O)c3ccccc3CC2c2ccccc21 (configuration not stated) | > 100 µM | > 100 | > 100 | – | > 100 | > 100 µM | – | > 100 | – | – | > 100 | – | – | – | – | – | – | – | – | – |
| CCNC(=O)COc1ccc(Br)cc1Br | > 100 µM | > 100 | > 100 | > 100 µM | > 100 | > 100 µM | – | > 100 | – | – | – | – | – | – | > 100 | – | > 100 | – | – | – |
| CC1/C=C/[C@@]2(C)CCC(C(C)(C)O)C2C(O)C[C@](C)(O)/C=C/C1 (some centres not stated) | > 100 µM | > 100 | > 100 | > 100 µM | > 100 | > 100 µM | – | > 100 | – | – | – | – | – | – | > 100 | – | > 100 | – | – | – |
| CC1=C[C@H]2c3c([nH]c4ccccc34)C(c3c[nH]c4ccccc34)[C@H]2CC1 (some centres not stated) | 26.4 µM | 22.4 | 35.1 | – | 26.6 | 23.1 µM | – | 35.8 | – | – | – | – | – | – | 4.19 | – | 28 | – | – | – |
| CC1=Nc2c(ccc3c2C(=O)c2ccccc2C3=O)NC(c2cccc3c2CCC3)C1 (configuration not stated) | > 100 µM | > 100 | > 100 | > 100 µM | > 100 | > 100 µM | – | > 100 | – | – | – | – | – | – | > 100 | – | > 100 | – | – | – |
| CCCNC(=O)C1C(=O)C(=O)N(CCC)C1=O (configuration not stated) | > 100 µM | > 100 | > 100 | > 100 µM | > 100 | > 100 µM | – | > 100 | – | – | – | – | – | – | > 100 | – | > 100 | – | – | – |
